From patent EP0084757A1, “Trisubstituted diaza derivatives” (CIBA-GEIGY AG, priority 1982, dated 1983)
Values after ≈ are worked out from the molar mass of the structure shown.

Tested on: mit Crotonöl induzierten Rattenohroedems
Assay: Inhibition of croton oil-induced rat ear oedema (method of Tonelli and Thibault)
Type: in vivo, Normalratte
Conditions: inhibition of croton oil-induced ear oedema in the normal rat; local application
Procedure: Diese Eigenschaft lässt sich beispielsweise nach der von G. Tonelli, L. Thibault, Endocrinology 77, 625 (1965) entwickelten Methode durch Hemmung des mit Crotonöl induzierten Rattenohroedems bei der Normalratte im Dosisbereich von etwa 1 bis etwa 100 mg/ml nachweisen.

SMILES: COC(Cc1nc(-c2ccccc2)c(-c2cccnc2)[nH]1)OC [2-[4(5)-Phenyl-5(4)-(3-pyridyl)-imidazol-2-yl]-acetaldehyd-dimethylacetal]
- ED50-Wert: 18 mg/mL (≈ 58.2 mM)
